The record followed here is patent US9850227B2 (YUHAN CORPORATION, priority 2011, dated 2017).

Where a name gives a salt, the structure may show the parent alone.

This assay deals with T1, human 5-HT4(a) (Homo sapiens, UniProt Q13639).
T1 construct: host or cells: GeneBIAzer HTR4-CRE-bla CHO-K1 cells
T1 sequence (Q13639 1-387 isoform Q13639-2): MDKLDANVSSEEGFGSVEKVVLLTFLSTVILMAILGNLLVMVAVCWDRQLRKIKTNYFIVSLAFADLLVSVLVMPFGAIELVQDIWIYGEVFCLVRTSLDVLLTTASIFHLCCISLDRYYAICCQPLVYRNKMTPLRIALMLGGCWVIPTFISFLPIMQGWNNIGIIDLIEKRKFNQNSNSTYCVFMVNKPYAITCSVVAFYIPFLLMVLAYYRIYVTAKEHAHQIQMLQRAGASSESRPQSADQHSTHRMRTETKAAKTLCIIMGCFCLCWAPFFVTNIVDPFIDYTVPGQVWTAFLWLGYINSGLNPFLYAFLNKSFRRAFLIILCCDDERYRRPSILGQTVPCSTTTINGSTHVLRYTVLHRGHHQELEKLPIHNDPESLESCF
The assay is described as follows: Evaluation of agonistic activity in CHO-K1 cells expressing human 5-HT4(a) (GeneBIAzer HTR4-CRE-bla CHO-K1 cells, beta-lactamase fluorescence ratio, EC50 from 8 concentrations). The format is cell-based. The method, boiled down:
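HTR4-CRE-bla CHO-K1 cells (10^4 per well, overnight in 1% FBS medium) exposed to compound for 5 h, then beta-lactamase substrate 2 h in the dark. Fluorescence ratio at 465/535 nm after 410 nm excitation; EC50 by non-linear regression over 8 concentrations.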
As usually defined, the EC50 is the concentration needed to bring the measured effect to its halfway point. For `CCCc1cc(N2CCC[C@@H](NC(=O)CO)C2)nc(Nc2ccc(C)c(C(F)(F)F)c2)n1` [Example 254, (R)-2-hydroxy-N-(1-{2-[4-methyl-3-(trifluoromethyl)phenylamino]-6-propylpyrimidin-4-yl}piperidin-3-yl)acetamide], the EC50 was determined as 0.038 nM.
The same measure for `CCCc1cc(N2CCC[C@@H](NC(=O)CO)C2)nc(Nc2cc(N)cc(C#N)c2)n1` [Example 255, (R)—N-{1-[2-(3-amino-5-cyanophenylamino)-6-propylpyrimidin-4-yl]piperidin-3-yl}-2-hydroxyacetamide]: 0.016 nM; for `CCCc1cc(N2CCC[C@@H](N)C2)nc(Nc2cc(N)cc(C(F)(F)F)c2)n1` [Example 256, (R)—N^1-[4-(3-aminopiperidin-1-yl)-6-propylpyrimidin-2-yl]-5-(trifluoromethyl)benzene-1,3-diamine]: 0.012 nM.
On to `CCCc1cc(N2CCC[C@@H](N)C2)nc(Nc2ccc(N)c(C(F)(F)F)c2)n1` [Example 257, (R)—N^1-[4-(3-aminopiperidin-1-yl)-6-propylpyrimidin-2-yl]-3-(trifluoromethyl)benzene-1,4-diamine], for which the EC50 was 0.042 nM.
Turning to `CCCc1cc(N2CCC[C@@H](N)C2)nc(Nc2ccc(F)c(N)c2)n1` [Example 259, (R)—N^1-[4-(3-aminopiperidin-1-yl)-6-propylpyrimidin-2-yl]-4-fluorobenzene-1,3-diamine], the EC50 was 0.084 nM.
Take `CCCc1cc(N2CCC[C@@H](N)C2)nc(Nc2cc(N)cc(C#N)c2)n1` [Example 260, (R)-3-amino-5-{[4-(3-aminopiperidin-1-yl)-6-propylpyrimidin-2-yl]amino}benzonitrile]: the EC50 was 0.0075 nM.
As to `CCCc1cc(N2CCC[C@@H](N)C2)nc(Nc2ccc(N)c(C#N)c2)n1` [Example 261, (R)-2-amino-5-{[4-(3-aminopiperidin-1-yl)-6-propylpyrimidin-2-yl]amino}benzonitrile], the EC50 was determined as 0.105 nM.
As to `CCCc1cc(N2CCC[C@@H](N)C2)nc(Nc2ccc(Cl)c(N)c2)n1` [Example 262, (R)—N^1-[4-(3-aminopiperidin-1-yl)-6-propylpyrimidin-2-yl]-4-chlorobenzene-1,3-diamine], the EC50 was found to be 0.021 nM.
For `CCCc1cc(N2CCC[C@@H](N)C2)nc(Nc2ccc(C)c(C(F)(F)F)c2)n1` [Example 263, (R)-4-(3-aminopiperidin-1-yl)-N-[4-methyl-3-(trifluoromethyl)phenyl]-6-propylpyrimidin-2-amine], the EC50 is 0.0072 nM.
On to `CCCc1cc(N2CCC[C@@H](N)C2)nc(Nc2ccc3cc[nH]c3c2)n1` [Example 264, (R)—N-[4-(3-aminopiperidin-1-yl)-6-propylpyrimidin-2-yl]-1H-indol-6-amine], for which the EC50 worked out at 0.328 nM.
Consider `CCCc1cc(N2CCC[C@@H](N)C2)nc(Nc2ccc(C)c([N+](=O)[O-])c2)n1` [Example 265, (R)-4-(3-aminopiperidin-1-yl)-N-(4-methyl-3-nitrophenyl)-6-propylpyrimidin-2-amine], for which the EC50 is 0.049 nM.
In the case of `CCCc1cc(N2CCC[C@@H](N)C2)nc(Nc2ccc(N)c([N+](=O)[O-])c2)n1` [Example 266, (R)—N^1-[4-(3-aminopiperidin-1-yl)-6-propylpyrimidin-2-yl]-3-nitrobenzene-1,4-diamine], the EC50 amounted to 0.0096 nM.
As to `CCCc1cc(N2CCC[C@@H](NCC3CC3)C2)nc(Nc2ccc(C)c(C#N)c2)n1` [Example 267, (R)-5-{4-[3-(cyclopropylmethylamino)piperidin-1-yl]-6-propylpyrimidin-2-ylamino}-2-methylbenzonitrile], the EC50 stood at 0.088 nM.
Turning to `CCCc1cc(N2CCC[C@@H](NC(C)=O)C2)nc(Nc2ccc(F)c(C#N)c2)n1` [Example 268, (R)—N-{1-[2-(3-cyano-4-fluorophenylamino)-6-propylpyrimidin-4-yl]piperidin-3-yl}acetamide], the EC50 stood at 0.025 nM.
For `CCCc1cc(N2CCC[C@@H](N(CC)CC)C2)nc(Nc2ccc(C)c(C#N)c2)n1` [Example 269, (R)-5-[4-(3-diethylaminopiperidin-1-yl)-6-propylpyrimidin-2-ylamino]-2-methylbenzonitrile], the EC50 worked out at 0.016 nM.
With `CCCc1cc(N2CCC[C@@H](N(CC)CC)C2)nc(Nc2ccc(F)c(C#N)c2)n1` [Example 270, (R)-5-[4-(3-diethylaminopiperidin-1-yl)-6-propylpyrimidin-2-ylamino]-2-fluorobenzonitrile], the EC50 turned out to be 0.148 nM.
With `CCCc1cc(N2CCC[C@@H](NCC)C2)nc(Nc2ccc(F)c(C#N)c2)n1` [Example 271, (R)-5-[4-(3-ethylaminopiperidin-1-yl)-6-propylpyrimidin-2-ylamino]-2-fluorobenzonitrile], the EC50 stood at 0.026 nM.
Regarding `CCCCc1cc(N2CCC[C@@H](NC(C)=O)C2)nc(Nc2cccc(C#N)c2)n1` [Example 272, (R)—N-{1-[6-butyl-2-(3-cyanophenylamino)-pyrimidin-4-yl]-piperidin-3-yl}-acetamide hydrochloride], the EC50 was found to be 0.011 nM.
`CCCc1cc(N2CCC[C@@H](NC(C)=O)C2)nc(Nc2cccc(C#N)c2)n1` [Example 273, (R)—N-{1-[2-(3-cyanophenylamino)-6-propylpyrimidin-4-yl]piperidin-3-yl}acetamide]: the half-maximal effective concentration (EC50) was 0.046 nM.
The value for `CCCc1cc(N2CCC[C@@H](NC(C)=O)C2)nc(Nc2cc(N)cc(C#N)c2)n1` [Example 274, (R)—N-{1-[2-(3-amino-5-cyanophenylamino)-6-propylpyrimidin-4-yl]piperidin-3-yl}acetamide] was 0.006 nM; that for `CCCc1cc(N2CCCC(NC(C)=O)C2)nc(Nc2ccc(N)c([N+](=O)[O-])c2)n1` (stereo not drawn) [Example 275, N-{1-[2-(4-amino-3-nitrophenylamino)-6-propylpyrimidin-4-yl]piperidin-3-yl}acetamide] was 0.0034 nM.
Take `CCCc1cc(N2CCCC(NC(C)=O)C2)nc(Nc2ccc(F)c(N)c2)n1` (stereo not drawn) [Example 276, N-{1-[2-(3-amino-4-fluorophenylamino)-6-propylpyrimidin-4-yl]piperidin-3-yl}acetamide]: the EC50 is 0.018 nM.
For `CCCc1cc(N2CCC[C@@H](NC(C)=O)C2)nc(Nc2ccc(F)c(C(F)(F)F)c2)n1` [Example 277, (R)—N-{1-[2-(4-fluoro-3-trifluoromethylphenylamino)-6-propylpyrimidin-4-yl]piperidin-3-yl}acetamide], the EC50 worked out at 0.014 nM.
With `CCCc1cc(N2CCC[C@@H](NC(C)=O)C2)nc(Nc2cc(N)cc(C(F)(F)F)c2)n1` [Example 278, (R)—N-(1-{2-[3-amino-5-(trifluoromethyl)phenylamino]-6-propylpyrimidin-4-yl}piperidin-3-yl)acetamide], the EC50 worked out at 0.01 nM.
Turning to `CCCc1cc(N2CCC[C@@H](NC(C)=O)C2)nc(Nc2ccc(N)c(C(F)(F)F)c2)n1` [Example 279, (R)—N-(1-{2-[4-amino-3-(trifluoromethyl)phenylamino]-6-propylpyrimidin-4-yl}piperidin-3-yl)acetamide], the EC50 is 0.014 nM.
The value for `CCCc1cc(N2CCC[C@@H](NC)C2)nc(Nc2ccc(F)c(C#N)c2)n1` [Example 282, (R)-2-fluoro-5-[4-(3-methylaminopiperidin-1-yl)-6-propylpyrimidin-2-ylamino]benzonitrile] was 0.073 nM; that for `CCCc1cc(N2CCC[C@@H](NC)C2)nc(Nc2ccc(C)c(C#N)c2)n1` [Example 283, (R)-2-methyl-5-[4-(3-methylaminopiperidin-1-yl)-6-propylpyrimidin-2-ylamino]benzonitrile] was 0.0084 nM; that for `CCCc1cc(N2CCC[C@@H](NC)C2)nc(Nc2cc(N)cc(C(F)(F)F)c2)n1` [Example 284, (R)—N^1-[4-(3-methylaminopiperidin-1-yl)-6-propylpyrimidin-2-yl]-5-(trifluoromethyl)benzene-1,3-diamine] was 0.0032 nM.
Take `CCCc1cc(N2CCC[C@@H](NC)C2)nc(Nc2ccc(N)c(C(F)(F)F)c2)n1` [Example 285, (R)—N^1-[4-(3-methylaminopiperidin-1-yl)-6-propylpyrimidin-2-yl]-3-(trifluoromethyl)benzene-1,4-diamine]: the concentration giving a half-maximal response (EC50) was determined as 0.005 nM.
In the case of `CCCc1cc(N2CCC[C@@H](NC)C2)nc(Nc2cc(N)cc(C#N)c2)n1` [Example 286, (R)-3-amino-5-[4-(3-methylaminopiperidin-1-yl)-6-propylpyrimidin-2-ylamino]benzonitrile], the EC50 was 0.0044 nM.
The value for `CCCc1cc(N2CCC[C@@H](NC)C2)nc(Nc2ccc(F)c(C(F)(F)F)c2)n1` [Example 287, (R)-(4-fluoro-3-trifluoromethylphenyl)-[4-(3-methylaminopiperidin-1-yl)-6-propylpyrimidin-2-yl]amine] was 0.026 nM.
For the compound `CCCc1cc(N2CCC[C@@H](NCC)C2)nc(Nc2ccc(N)c([N+](=O)[O-])c2)n1` [Example 288, (R)—N^1-[4-(3-ethylaminopiperidin-1-yl)-6-propylpyrimidin-2-yl]-3-nitrobenzene-1,4-diamine], the EC50 worked out at 0.0046 nM.
With `CCCc1cc(N2CCC[C@@H](NCC)C2)nc(Nc2ccc(F)c(N)c2)n1` [Example 289, (R)—N^1-[4-(3-ethylaminopiperidin-1-yl)-6-propylpyrimidin-2-yl]-4-fluorobenzene-1,3-diamine], the EC50 was determined as 0.0065 nM.
For the compound `CCCc1cc(N2CCC[C@@H](NCC)C2)nc(Nc2cc(N)cc(C(F)(F)F)c2)n1` [Example 290, (R)—N^1-[4-(3-ethylaminopiperidin-1-yl)-6-propylpyrimidin-2-yl]-5-(trifluoromethyl)benzene-1,3-diamine], the EC50 was 0.0041 nM.
In the case of `CCCc1cc(N2CCC[C@@H](NCC)C2)nc(Nc2ccc(N)c(C(F)(F)F)c2)n1` [Example 291, (R)—N^1-[4-(3-ethylaminopiperidin-1-yl)-6-propylpyrimidin-2-yl]-3-(trifluoromethyl)benzene-1,4-diamine], the EC50 was determined as 0.0028 nM.
As for `CCCc1cc(N2CCC[C@@H](NCC)C2)nc(Nc2cc(N)cc(C#N)c2)n1` [Example 292, (R)-3-amino-5-[4-(3-ethylaminopiperidin-1-yl)-6-propylpyrimidin-2-ylamino]benzonitrile], the EC50 was 0.019 nM.
